Assay [1] addresses Metabotropic glutamate receptor 1 (Homo sapiens) (UniProt Q13255). The assay can be described thus: Antagonist activity at mGluR1 expressed in CHO cells assessed as inhibition of glutamate stimulated phosphatidyl inositol hydrolysis at 10 uM. Format: functional, cell-based.
Assay [2] has as its target 5-hydroxytryptamine receptor 2A (Rattus norvegicus, UniProt P14842). The assay can be described thus: Displacement of [3H]ketanserin from 5HT2A receptor in rat cortex membrane. The assay is classed as cell membranes. (Displacement assays read how much labelled ligand stays bound in the presence of the test substance.)
In assay [3] the target is Metabotropic glutamate receptor 6 (Homo sapiens) (UniProt O15303). The assay can be described thus: Agonist activity at mGluR6 expressed in CHO cells assessed as decrease in cAMP accumulation at 10 uM. Also noted: scale not given: the % may be the effect or the level left. Format: functional, cell-based. For orientation: Cyclic AMP is a second messenger, typically raised through Gs and lowered through Gi signalling.
Sequence of Metabotropic glutamate receptor 6 (Homo sapiens) (O15303 whole entry): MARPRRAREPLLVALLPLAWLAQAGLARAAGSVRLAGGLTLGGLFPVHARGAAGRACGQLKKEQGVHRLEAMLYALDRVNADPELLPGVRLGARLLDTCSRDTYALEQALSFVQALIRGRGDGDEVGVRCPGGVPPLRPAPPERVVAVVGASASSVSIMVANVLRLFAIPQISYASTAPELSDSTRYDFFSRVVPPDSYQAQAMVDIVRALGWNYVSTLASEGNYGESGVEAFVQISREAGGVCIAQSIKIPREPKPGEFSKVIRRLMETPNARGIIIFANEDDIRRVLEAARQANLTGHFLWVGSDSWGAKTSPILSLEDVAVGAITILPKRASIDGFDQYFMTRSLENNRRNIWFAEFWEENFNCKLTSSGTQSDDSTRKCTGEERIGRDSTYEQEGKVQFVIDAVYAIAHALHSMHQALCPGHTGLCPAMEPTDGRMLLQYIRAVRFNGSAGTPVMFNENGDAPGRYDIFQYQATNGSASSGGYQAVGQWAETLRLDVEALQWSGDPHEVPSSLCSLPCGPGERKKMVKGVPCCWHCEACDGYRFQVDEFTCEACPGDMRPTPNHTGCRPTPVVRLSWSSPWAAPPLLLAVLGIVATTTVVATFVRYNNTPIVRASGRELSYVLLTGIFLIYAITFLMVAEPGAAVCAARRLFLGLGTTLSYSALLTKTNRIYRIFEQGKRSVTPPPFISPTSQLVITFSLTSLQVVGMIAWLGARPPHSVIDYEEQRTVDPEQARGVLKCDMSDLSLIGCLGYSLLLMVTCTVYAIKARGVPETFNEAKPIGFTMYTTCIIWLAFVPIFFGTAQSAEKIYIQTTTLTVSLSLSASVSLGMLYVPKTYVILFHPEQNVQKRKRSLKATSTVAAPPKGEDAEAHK

Assay [4] concerns the target Metabotropic glutamate receptor 2 (Homo sapiens) (UniProt Q14416). The assay can be described thus: Agonist activity at mGluR2 expressed in CHO cells assessed as decrease in cAMP accumulation at 10 uM. Format: functional, cell-based. Also noted: scale not given: the % may be the effect or the level left.
Assay [5] deals with Metabotropic glutamate receptor 1 (Homo sapiens) (UniProt Q13255). The assay is described as follows: Agonist activity at mGluR1 expressed in CHO cells assessed as stimulation of phosphatidyl inositol hydrolysis at 10 uM. Format: functional, cell-based.
Sequence of Metabotropic glutamate receptor 1 (Homo sapiens) (Q13255 19-1194 limits assumed): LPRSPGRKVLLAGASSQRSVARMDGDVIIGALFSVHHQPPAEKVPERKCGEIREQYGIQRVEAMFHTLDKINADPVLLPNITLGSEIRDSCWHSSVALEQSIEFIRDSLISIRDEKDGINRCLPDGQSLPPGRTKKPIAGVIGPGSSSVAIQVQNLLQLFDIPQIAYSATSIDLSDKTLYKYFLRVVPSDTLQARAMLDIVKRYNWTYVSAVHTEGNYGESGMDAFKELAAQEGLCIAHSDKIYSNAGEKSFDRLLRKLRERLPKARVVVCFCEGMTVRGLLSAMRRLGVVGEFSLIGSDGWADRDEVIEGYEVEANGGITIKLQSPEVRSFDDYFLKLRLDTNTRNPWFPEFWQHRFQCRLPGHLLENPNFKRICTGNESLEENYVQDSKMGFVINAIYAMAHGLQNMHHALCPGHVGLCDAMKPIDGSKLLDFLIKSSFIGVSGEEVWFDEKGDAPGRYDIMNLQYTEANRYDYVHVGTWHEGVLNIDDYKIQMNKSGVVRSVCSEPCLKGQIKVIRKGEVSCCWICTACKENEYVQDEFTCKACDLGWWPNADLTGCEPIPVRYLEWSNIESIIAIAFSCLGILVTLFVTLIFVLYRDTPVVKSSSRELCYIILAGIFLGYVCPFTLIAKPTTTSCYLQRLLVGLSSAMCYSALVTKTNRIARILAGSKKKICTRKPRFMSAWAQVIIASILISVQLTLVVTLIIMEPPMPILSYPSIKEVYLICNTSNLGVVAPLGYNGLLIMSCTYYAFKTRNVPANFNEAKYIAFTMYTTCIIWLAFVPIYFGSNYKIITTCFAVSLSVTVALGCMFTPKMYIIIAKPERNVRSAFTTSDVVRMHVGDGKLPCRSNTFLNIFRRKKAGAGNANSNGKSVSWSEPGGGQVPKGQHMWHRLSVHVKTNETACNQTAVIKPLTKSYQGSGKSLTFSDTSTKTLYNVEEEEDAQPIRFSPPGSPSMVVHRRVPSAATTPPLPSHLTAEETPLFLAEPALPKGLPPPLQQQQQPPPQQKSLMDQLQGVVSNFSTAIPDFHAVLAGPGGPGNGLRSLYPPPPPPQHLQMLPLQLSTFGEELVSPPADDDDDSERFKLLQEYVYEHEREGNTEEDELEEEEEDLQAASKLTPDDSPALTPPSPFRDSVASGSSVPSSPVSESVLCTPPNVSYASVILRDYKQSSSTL
Assay [6] has as its target Sodium-dependent serotonin transporter (Homo sapiens, UniProt P31645). The assay is classed as cell membranes.
The target in assay [7] is Metabotropic glutamate receptor 2 (Homo sapiens) (UniProt Q14416). The assay is described as follows: Antagonist activity at mGluR2 expressed in CHO cells assessed as inhibition of glutamate-induced cAMP accumulation at 10 uM. Format: functional, cell-based.
Sequence of Metabotropic glutamate receptor 2 (Homo sapiens) (Q14416 19-872 limits assumed): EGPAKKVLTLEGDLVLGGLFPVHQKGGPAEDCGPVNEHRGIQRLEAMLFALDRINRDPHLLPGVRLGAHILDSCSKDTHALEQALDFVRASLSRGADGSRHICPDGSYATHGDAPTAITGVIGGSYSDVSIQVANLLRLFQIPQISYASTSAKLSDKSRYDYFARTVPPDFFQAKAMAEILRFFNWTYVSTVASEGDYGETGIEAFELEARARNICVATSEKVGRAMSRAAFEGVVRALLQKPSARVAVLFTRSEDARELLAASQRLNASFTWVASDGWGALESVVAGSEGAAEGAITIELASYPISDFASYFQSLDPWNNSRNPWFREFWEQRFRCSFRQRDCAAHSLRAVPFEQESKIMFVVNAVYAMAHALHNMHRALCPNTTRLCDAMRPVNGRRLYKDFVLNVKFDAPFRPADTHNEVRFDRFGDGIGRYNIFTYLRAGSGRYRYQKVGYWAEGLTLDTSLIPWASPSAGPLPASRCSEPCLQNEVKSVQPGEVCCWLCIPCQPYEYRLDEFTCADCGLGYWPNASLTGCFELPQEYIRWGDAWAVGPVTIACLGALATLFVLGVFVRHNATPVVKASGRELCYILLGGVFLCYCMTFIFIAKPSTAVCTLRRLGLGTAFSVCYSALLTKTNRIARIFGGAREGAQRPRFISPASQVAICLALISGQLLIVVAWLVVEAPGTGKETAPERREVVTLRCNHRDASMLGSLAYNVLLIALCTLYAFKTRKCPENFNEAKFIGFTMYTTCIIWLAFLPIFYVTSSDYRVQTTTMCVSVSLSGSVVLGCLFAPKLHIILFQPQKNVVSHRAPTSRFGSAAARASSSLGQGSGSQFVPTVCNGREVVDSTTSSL
For assay [8], the target named is T1, 5-hydroxytryptamine receptor 1A (Rattus norvegicus, UniProt P19327).
T1 sequence (P19327 whole entry): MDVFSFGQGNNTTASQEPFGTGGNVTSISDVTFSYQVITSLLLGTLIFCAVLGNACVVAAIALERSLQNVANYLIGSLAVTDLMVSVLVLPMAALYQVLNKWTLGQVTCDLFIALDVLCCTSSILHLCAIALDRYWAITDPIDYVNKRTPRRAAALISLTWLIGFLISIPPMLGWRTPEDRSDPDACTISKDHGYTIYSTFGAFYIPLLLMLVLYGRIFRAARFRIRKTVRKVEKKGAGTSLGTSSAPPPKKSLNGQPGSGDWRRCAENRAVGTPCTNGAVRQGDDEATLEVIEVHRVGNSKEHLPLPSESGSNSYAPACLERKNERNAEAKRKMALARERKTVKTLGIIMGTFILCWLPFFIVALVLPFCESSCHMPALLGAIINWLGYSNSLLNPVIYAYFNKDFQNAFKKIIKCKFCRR
The assay can be described thus: Displacement of [3H]8-OH-DPAT from 5HT1A receptor in rat cortex membrane. The assay is classed as cell membranes.

Assay [9] concerns the target Metabotropic glutamate receptor 6 (Homo sapiens) (UniProt O15303). The assay is described as follows: Antagonist activity at mGluR6 expressed in CHO cells assessed as inhibition of AP4-induced cAMP accumulation at 10 uM. The assay is classed as functional, cell-based.
Assay [10] has as its target Metabotropic glutamate receptor 2 (Homo sapiens) (UniProt Q14416). The assay can be described thus: Antagonist activity at mGluR2 expressed in CHO cells assessed as inhibition of forskolin stimulated cAMP accumulation at 10 uM. The assay is classed as functional, cell-based.
Assay [11] addresses Metabotropic glutamate receptor 6 (Homo sapiens) (UniProt O15303). The assay is described as follows: Antagonist activity at mGluR6 expressed in CHO cells assessed as inhibition of forskolin stimulated cAMP accumulation at 10 uM. The assay is classed as functional, cell-based.

What is called Ki is the equilibrium dissociation constant of an inhibitor or competing ligand from its target.

Active and inactive are the calls of the source. No cut-off for these calls is given here.

Sequence of Sodium-dependent serotonin transporter (P31645 whole entry): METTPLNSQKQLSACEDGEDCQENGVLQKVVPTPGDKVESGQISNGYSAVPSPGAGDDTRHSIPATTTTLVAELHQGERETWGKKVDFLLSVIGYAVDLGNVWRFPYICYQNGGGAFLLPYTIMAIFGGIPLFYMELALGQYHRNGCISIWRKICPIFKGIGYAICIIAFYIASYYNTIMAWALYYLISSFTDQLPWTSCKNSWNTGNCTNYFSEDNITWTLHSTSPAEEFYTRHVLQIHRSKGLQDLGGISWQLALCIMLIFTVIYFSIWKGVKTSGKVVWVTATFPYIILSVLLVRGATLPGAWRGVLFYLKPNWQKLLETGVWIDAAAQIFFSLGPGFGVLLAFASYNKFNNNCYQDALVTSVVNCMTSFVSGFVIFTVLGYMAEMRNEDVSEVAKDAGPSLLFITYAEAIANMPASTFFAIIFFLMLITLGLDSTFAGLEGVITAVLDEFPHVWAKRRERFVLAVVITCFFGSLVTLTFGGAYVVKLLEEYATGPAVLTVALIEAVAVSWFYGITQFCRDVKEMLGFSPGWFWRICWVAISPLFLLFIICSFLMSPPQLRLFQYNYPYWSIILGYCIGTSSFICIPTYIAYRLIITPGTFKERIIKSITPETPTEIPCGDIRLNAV
Sequence of 5-hydroxytryptamine receptor 2A (P14842 whole entry): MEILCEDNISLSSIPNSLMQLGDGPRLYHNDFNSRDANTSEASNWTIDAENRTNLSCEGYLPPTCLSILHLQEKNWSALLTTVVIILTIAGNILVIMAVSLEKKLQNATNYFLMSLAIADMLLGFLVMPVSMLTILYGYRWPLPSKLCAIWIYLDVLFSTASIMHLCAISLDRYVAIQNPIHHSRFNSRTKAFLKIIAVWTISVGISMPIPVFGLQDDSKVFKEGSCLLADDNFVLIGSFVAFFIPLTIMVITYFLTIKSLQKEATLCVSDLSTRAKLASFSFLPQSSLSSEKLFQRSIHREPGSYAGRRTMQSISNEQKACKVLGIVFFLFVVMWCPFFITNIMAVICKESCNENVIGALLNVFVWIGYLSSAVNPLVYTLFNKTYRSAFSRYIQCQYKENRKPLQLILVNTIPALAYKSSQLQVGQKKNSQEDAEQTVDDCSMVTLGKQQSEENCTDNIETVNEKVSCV

As for `N[C@@]1(C(=O)O)C[C@@H](C(=O)O)C[C@H]1C(=O)O`, the result in assay [1], in assay [5], in assay [7] and in assay [9] was inactive. The inhibitory constant (Ki) in assay [2], in assay [6] and in assay [8] was more than 50 µM each time. Moreover, the Activity in assay [3] and in [4] was 30% each time.
With `N[C@]1(C(=O)O)C[C@H](C(=O)O)C[C@@H]1C(=O)O`, the result in assay [1], in assay [10], in [11], in [3], in assay [4] and in assay [5] was inactive. Moreover, the outcome in assay [7] and in assay [9] was inactive. Also, the inhibition constant Ki in assay [2], in assay [6] and in assay [8] was more than 50 µM throughout.
On to `N[C@]1(C(=O)O)C[C@@H](C(=O)O)C[C@H]1C(=O)O`, for which the result in assay [1], in assay [10], in [11], in assay [3], in [4] and in assay [5] was inactive. For the same compound, the outcome in assay [7] and in assay [9] was inactive. Moreover, the Ki in assay [2] is more than 50 µM; in assay [6] it was 10 µM; in [8], more than 50 µM.
`N[C@@]1(C(=O)O)C[C@H](C(=O)O)C[C@@H]1C(=O)O`: the outcome in [1], in [10], in assay [11], in assay [3], in assay [4] and in assay [5] was inactive. For the same compound, the outcome in assay [7] and in assay [9] was inactive. The inhibition constant (Ki) in assay [2], in assay [6] and in assay [8] was more than 50 µM each time.

The values are drawn from ChEMBL document CHEMBL1137549, “1-Aminocyclopentane-1,2,4-tricarboxylic acids screening on glutamatergic and serotonergic systems” (Bioorg Med Chem, 2007).
